Experimental data: PMC9961652 (International Journal of Molecular Sciences, 2023)
Read-outs that look alike come from different tables or passages of the source.

Legend:
washed human platelets = assay: Collagen-induced platelet aggregation, light transmission aggregometry (Born method); type: cell-based; conditions: for activity at 20 µM / IC50: Platelet; for activity at 20 µM: compound 20 µM, means ± SDs of three experiments, 100% = agonist alone; for IC50: Homo sapiens
Protocol: Light transmission aggregometry, i.e., the Born method, was used to determine in vitro antiplatelet aggregation activity using collagen as the agonist for platelet aggregation. Collagen was selected as the agonist, since it is the most thrombogenic component of the subendothelial layer. Collagen also serves as a substrate for platelet adhesion and as an inducer of platelet activation.
All experiments using human blood from healthy volunteers were performed according to the protocols approved by the Institutional Review Board at Cincinnati Children’s Hospital Medical Center, Cincinnati, Ohio. Each volunteer was required to sign an informed consent form approved by the IRB. Procedures for drawing human blood, isolating platelet-rich plasma (PRP), and preparing washed platelet suspensions were the same as those previously reported. […] PRP was obtained by means of the centrifugation of blood at 1400 rpm for 15 min at room temperature. PRP was centrifuged at 4000 rpm for 10 min at room temperature, and the platelet pellet was resuspended in HEPES Tyrode’s solution (pH 7.4) without calcium. Platelets were counted using Hemavet 950FS (Drew Scientific, Oxford, CT, USA), and the count was adjusted to 2.5 × 10^8/mL for aggregation studies.
The in vitro antiplatelet activity of the compounds was assayed on washed human platelets using light transmission aggregometry. Platelet aggregation was performed using a 4-channel Lumi-aggregometer (Chronolog, PA, USA) at 37 °C and stirring speed of 900 rpm. A volume of 250 µL of washed human platelets (2.5 × 10^8/mL) was pre-warmed to 37 °C along with the compounds or DMSO (0.1%) for 2 min before the addition of agonists such as collagen, AA, U46619 (a stable synthetic analog of thromboxane A2), ADP, and thrombin. For ATP secretion, platelets were pre-incubated with a luciferin/luciferase kit (Chrono-lume®) for 30 s at 37 °C before the addition of the agonist. The reactions were allowed to proceed for at least 4 min, and the results of platelet aggregation and ATP secretion were determined using Aggrolink software. Platelet aggregation was expressed as the maximum change in the light transmission, where the 100% value corresponded to treatment with the agonist alone. Compounds were evaluated in triplicate at nine compound concentrations ranging from 50 µM to 1 µM.

RhoA-LARG interaction = target: T1, RhoA-LARG interaction (Homo sapiens, UniProt P61586); assay: In vitro complex-formation assay of RhoA with LARG DH-PH domain; type: binding; conditions: 20 µM; pull-down assay conditions, 4 °C, 1 h
T1 construct: 100 ng of purified full-length RhoA
Protocol: (A) A complex-formation assay tested the inhibitory effects of 20 µM UC-177618 and UC-177619 on RhoA interaction with the LARG DH-PH domain. […] After incubating the compound-RhoA-LARG mixture at 4 °C for 1 h, the beads associated with RhoA were detected with anti-RhoA Western blotting. (B,C) Top view of the predicted structural contacts of UC-177618 and UC-177619 in the binding pocket around the Trp58 residue of RhoA.
(A) A complex-formation assay tested the inhibitory effects of R-G04 and S-G04 on RhoA interaction with the LARG DH-PH domain. MBP-(His)6-tagged LARG (100 ng) was immobilized on Amylose beads. Binding buffer containing full-length RhoA (100 ng) was pre-incubated with different concentrations of R-G04 (25 µM or 50 µM), and S-G04 (5 µM or 10 µM) was added to the beads. After incubating the compound-RhoA-LARG mixture at 4 °C for 1 h, the beads associated with RhoA were detected with anti-RhoA Western blotting. (B) Top view of the predicted structural contacts of R-G04 and S-G04 in the binding pocket around the Trp58 residue of RhoA.
In total, 100 ng of purified MBP (Maltose-binding protein)-(His)6-tagged LARG DH-PH was immobilized on 20 µL of suspended amylose beads (No. E8021S; New England Biolabs Inc., Ipswich, MA, USA) by incubating them in an orbital shaker at 4 °C for 30 min in binding buffer (20 mM Tris·HCl (pH 7.6), 100 mM NaCl, 0.01% Triton X-100, 5mM EDTA, and 5 mM MgCl2). The compounds were added to the binding buffer containing 100 ng of purified full-length RhoA and pre-incubated at 4 °C for 30 min under constant agitation. The Amylose beads bound to LARG were washed thrice with binding buffer to get rid of unbound LARG, and the pre-incubated compound-RhoA mixture was added to the beads. This LARG-compound-RhoA mixture was incubated in the orbital shaker at 4 °C for 1 h. The beads were washed three times, and the amount of RhoA protein co-precipitated with the MBP-fusion-bound beads was detected with anti-RhoA Western blotting.

RhoA = assay: RhoA-GTP formation, GST-Rhotekin effector pull-down assay in collagen-stimulated platelets; type: cell-based, human; conditions: 20 µM, 2 min pre-incubation; collagen 1 µg/mL for 4 min
Protocol: Next, the ability of the six compounds to suppress RhoA activity in platelets was assessed by subjecting them to a GST (Glutathione-S-transferase)-Rhotekin effector pull-down assay. The compounds were incubated with washed human platelets for 2 min before being stimulated with 1 µg/mL collagen. The analogs inhibited the activation of RhoA at the 20 µM concentration (Figure 2A,B). […] After confirming that these analogs could prevent RhoA activation and the phosphorylation of the MLC, their ability to disrupt complex-formation between RhoA and LARG was tested. […] These findings indicate that the active analogs inhibit RhoA activation by disrupting the binding between RhoA and its GEF.
(A,B) Washed human platelets were incubated with collagen (1 µg/mL) for 4 min, and the levels of RhoA-GTP formation were quantified with a GST-Rhotekin effector pull-down assay. The platelets were pre-incubated with 20 µM UC-177618, UC-177619, UC-177628, UC-177629, […], or […] for 2 min before being stimulated with collagen. The addition of ice-cold lysis buffer terminated the reaction. […] Relative amounts of the GTP-bound form of RhoA were quantified with densitometry measurements of total RhoA (T-RhoA) and normalized to untreated platelets. (C,D) The addition of 20 µM of active Rhosin-related compounds to washed human platelets 2 min before stimulation with collagen blocked the phosphorylation of the myosin light chain (p-MLC). The reactions were terminated after 4 min by adding 4x Laemmli sample buffer. The samples were processed for Western blotting and probed for MLC and p-MLC, and phosphorylation was quantified by measuring the densitometry of total MLC (T-MLC). The differences between DMSO- and Rhosin-related compounds were analyzed with t-test, and the results are shown as means ± SDs of three independent experiments. (* p < 0.05, ** p < 0.01, *** p < 0.001, and **** p < 0.0001).
The relative levels of RhoA-GTP in washed human platelets were quantified with effector domains GST-Rhotekin pull-down assays as previously reported. A volume of 250 µL of washed human platelets (2.5 × 10^8/mL) was pre-warmed to 37 °C along with the compounds or DMSO (0.1%) for 2 min before being stimulated with collagen (1 µg/mL). The reactions were terminated 4 min after collagen stimulation by adding ice-cold lysis buffer (20 mM Tris·HCl (pH 7.6), 100 mM NaCl, 1% Triton X-100, 0.2% Sodium Deoxycholate, 10 mM MgCl2, 1 mM dithiothreitol, 1x protease inhibitor cocktail, and 1x phosphatase inhibitor cocktail). The supernatants were collected and subjected to the GST-Rhotekin pull-down assay. The total cell lysates were also blotted in parallel. GTP-bound RhoA was quantitatively detected with Western blotting using an anti-RhoA antibody. The relative amounts of RhoA were quantified with densitometry measurements and normalized to the untreated platelets.

[1] = washed human platelets, read-out: % Platelet Aggregation, Collagen (1 µg/mL)
[2] = washed human platelets, read-out: % Platelet Aggregation, Collagen (5 µg/mL)
[3] = collagen 1 µg/mL, washed human platelets, dose-response curves, read-out: IC50 (95% CI) of platelet aggregation
[4] = collagen-induced platelet aggregation, compounds without IC50 determination estimated from percent inhibition at 20 µM, read-out: IC50 (SAR table)

T1 sequence (P61586 whole entry, the tested form may be a part): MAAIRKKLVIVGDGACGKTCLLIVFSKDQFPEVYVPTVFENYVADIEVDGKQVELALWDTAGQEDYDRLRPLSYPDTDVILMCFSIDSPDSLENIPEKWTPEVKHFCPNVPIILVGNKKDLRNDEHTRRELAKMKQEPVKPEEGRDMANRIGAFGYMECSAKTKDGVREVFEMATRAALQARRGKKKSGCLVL

| SMILES | activity at 20 µM (washed human platelets; [1]) [%] | activity at 20 µM (washed human platelets; [2]) [%] | IC50 (washed human platelets; [3]) [µM] | IC50 (washed human platelets; [4]) [µM] | LARG binding to RhoA (RhoA-LARG interaction) | RhoA-GTP formation (RhoA) | activity in collagen-induced platelet aggregation (SAR statement) (washed human platelets; relative to the quinoline analogs) |
| --- | --- | --- | --- | --- | --- | --- | --- |
| CSCCNc1nc(SCCC(F)(F)F)nc2c1ncn2[C@@H]1O[C@H](COP(=O)(O)OP(=O)(O)C(Cl)(Cl)P(=O)(O)O)[C@@H](O)[C@H]1O [Cangrelor, reference compound] | 27.7 ± 2.52 | 63.3 ± 4.16 | – | – | – | – | – |
| CN(Nc1ccnc2cc(C(F)(F)F)ccc12)C(N)=S [UC177623] | 84.3 ± 9 | 90.7 ± 6.2 | – | – | – | – | – |
| O=C1OCCN1Nc1ccnc2ccccc12 [UC-177613] | 84.3 ± 15.5 | 95.2 ± 4.9 | – | – | – | – | – |
| O=C1OCCN1Nc1ccnc2cc(C(F)(F)F)ccc12 [UC-177614] | 87.3 ± 9.6 | 90 ± 3.1 | – | – | – | – | – |
| S=C(NNc1ccnc2ccccc12)Nc1ccccc1 [UC-177615] | 9.7 ± 6 | 11.4 ± 9.9 | 5.47 | – | – | – | – |
| O=C(NNc1ccnc2ccccc12)Nc1ccccc1 [UC-177616] | 11.7 ± 2.3 | 10.6 ± 3.6 | 4.9 | – | – | – | – |
| O=C(NNc1ccnc2ccccc12)c1ccc(Cl)c(Cl)c1 [UC-177617] | 13 ± 10.4 | 26.8 ± 9 | – | 5.64 | – | – | – |
| O=C(NNc1ccnc2ccccc12)c1cc2ccccc2[nH]1 [UC-177626] | 86 ± 14.4 | 87.6 ± 19.4 | – | > 20 | showed no effects | – | – |
| O=C(NNc1ccnc2cc(C(F)(F)F)ccc12)c1cc2ccccc2[nH]1 [UC-177627] | 17.7 ± 11.4 | 19 ± 17.7 | 2.22 | 2.23 | – | – | – |
| O=C(NNc1ccnc2c(C(F)(F)F)cccc12)c1cc2ccccc2[nH]1 [UC-177628] | 8.7 ± 4.7 | 12.3 ± 9 | – | 2.84 | – | inhibited RhoA-GTP formation | – |
| O=C(NNc1ccnc2cc(Cl)ccc12)c1cc2ccccc2[nH]1 [UC-177629] | 7.3 ± 5.9 | 10.8 ± 3 | – | 2.39 | – | inhibited RhoA-GTP formation | – |
| Cc1cc(NNC(=O)c2cc3ccccc3[nH]2)nc2ccccc12 [UC-177630] | 73 ± 21.6 | 85 ± 15.3 | – | > 20 | – | – | lost all activity |
| Cc1ccc(C(=O)NNc2ccnc3ccccc23)cc1 [UC-177631] | 87.7 ± 13.1 | 90.4 ± 3.7 | – | > 20 | – | – | – |
| Cc1ccc(C(=O)NNc2ccnc3cc(C(F)(F)F)ccc23)cc1 [UC-177632] | 86.7 ± 11 | 93.1 ± 12.8 | – | > 20 | – | – | – |
